According to ChEMBL document CHEMBL1201862, “PubChem BioAssay data set” (2004):
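Test compounds were applied to cells in 96-well plates for 48 hours at 5 doses. Abbreviation: GI50, concentration required for 50% inhibition of growth.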 Calls of active or inactive are those of the source. No stated cut-off is given here; in the data, active = GI50 up to about 1.1 µM and inactive = higher.

Legend:
Assay in all cases: NCI anticancer screen, dose series, 48 h
[1] = system: XF498
[2] = system: CAKI-1
[3] = system: EKVX
[4] = system: HT-29
[5] = system: SF-295
[6] = system: CCRF-CEM
[7] = system: SK-MEL-28
[8] = system: 786-0
[9] = system: IGROV-1
[10] = system: UACC-257
[11] = system: OVCAR-3
[12] = system: M14
[13] = system: LOX IMVI
[14] = system: SW-620
[15] = system: HCT-15
[16] = system: OVCAR-8
[17] = system: K562
[18] = system: MOLT-4
[19] = system: A549
[20] = system: Malme-3M
[21] = system: SK-MEL-2
[22] = system: NCI-H226
[23] = system: HOP-18
[24] = system: NCI-H23
[25] = system: DMS-273
[26] = system: HCT-116
[27] = system: U-251
[28] = system: UACC-62
[29] = system: KM-20L2
[30] = system: HOP-62
[31] = system: SF-268
[32] = system: COLO 205
[33] = system: NCI-H460
[34] = system: NCI-H522
[35] = system: KM12
[36] = system: SNB-75
[37] = system: TK-10
[38] = system: OVCAR-4
[39] = system: SNB-19
[40] = system: HL-60
[41] = system: UO-31
[42] = system: DLD-1
[43] = system: RXF 393
[44] = system: M19-MEL
[45] = system: SNB-78
[46] = system: SK-OV-3
[47] = system: SN12C
[48] = system: DMS-114
[49] = system: OVCAR-5
[50] = system: RPMI-8226
[51] = system: LXFL 529
[52] = system: SF-539
[53] = system: HCC 2998
[54] = system: ACHN
[55] = system: HOP-92
[56] = system: A498
[57] = system: SR
[58] = system: SK-MEL-5

## OCC(O)C(O)C(O)c1nn(-c2ccc(F)cc2)c2nc3cc(Cl)c(Cl)cc3nc12 (stereo unspecified)
[1]
  GI50: 11.4 µM (inactive)
[2]
  GI50: 21.7 µM (inactive)
[3]
  GI50: 18.9 µM (inactive)
[4]
  GI50: 56 µM (inactive)
[5]
  GI50: 29.1 µM (inactive)
[6]
  GI50: 14.9 µM (inactive)
[7]
  GI50: 16.8 µM (inactive)
[8]
  GI50: 17.3 µM (inactive)
[9]
  GI50: 21.9 µM (inactive)
[10]
  GI50: 21.4 µM (inactive)
[11]
  GI50: 21.8 µM (inactive)
[12]
  GI50: 18.2 µM (inactive)
[13]
  GI50: 18.3 µM (inactive)
[14]
  GI50: 26.4 µM (inactive)
[15]
  GI50: 53.3 µM
[16]
  GI50: 11 µM (inactive)
[17]
  GI50: 17.6 µM (inactive)
[18]
  GI50: 18.8 µM (inactive)
[19]
  GI50: 13.3 µM (inactive)
[20]
  GI50: 9.51 µM (inactive)
[21]
  GI50: 17.3 µM (inactive)
[22]
  GI50: 24.2 µM (inactive)
[23]
  GI50: 16.9 µM (inactive)
[24]
  GI50: 18.5 µM (inactive)
[25]
  GI50: 15.9 µM (inactive)
[26]
  GI50: 24.5 µM (inactive)
[27]
  GI50: 29.8 µM (inactive)
[28]
  GI50: 16.9 µM (inactive)
[29]
  GI50: 49.7 µM (inactive)
[30]
  GI50: 12.7 µM (inactive)
[31]
  GI50: 16.9 µM (inactive)
[32]
  GI50: 69 µM (inactive)
[33]
  GI50: 25.5 µM (inactive)
[34]
  GI50: 14.9 µM (inactive)
[35]
  GI50: 23.3 µM (inactive)
[36]
  GI50: 3.94 µM (inactive)
[37]
  GI50: 21.5 µM (inactive)
[38]
  GI50: 6.21 µM (inactive)
[39]
  GI50: 18.3 µM (inactive)
[40]
  GI50: > 100 µM (inactive)
[41]
  GI50: 33.5 µM (inactive)
[42]
  GI50: 32.7 µM (inactive)
[43]
  GI50: 15.6 µM (inactive)
[44]
  GI50: 22 µM (inactive)
[45]
  GI50: 13.8 µM (inactive)
[46]
  GI50: 23.3 µM (inactive)
[47]
  GI50: 22.1 µM (inactive)
[48]
  GI50: 21.3 µM (inactive)
[49]
  GI50: > 100 µM (inactive)
[50]
  GI50: 36.4 µM (inactive)
[51]
  GI50: 28.1 µM (inactive)
[52]
  GI50: 13.9 µM (inactive)
[53]
  GI50: 29.4 µM (inactive)
[54]
  GI50: > 10 µM (inactive)

## CCOC(=O)C(CCC(N)=O)(CCC(=O)OC)C(=O)OCC
[1]
  GI50: > 100 µM (inactive)
[55]
  GI50: > 100 µM (inactive)
[2]
  GI50: > 100 µM (inactive)
[3]
  GI50: > 100 µM (inactive)
[56]
  GI50: > 100 µM (inactive)
[4]
  GI50: > 100 µM (inactive)
[5]
  GI50: > 100 µM (inactive)
[7]
  GI50: > 100 µM (inactive)
[8]
  GI50: > 100 µM (inactive)
[9]
  GI50: > 100 µM (inactive)
[10]
  GI50: > 100 µM (inactive)
[11]
  GI50: > 100 µM (inactive)
[12]
  GI50: > 100 µM (inactive)
[13]
  GI50: > 100 µM (inactive)
[57]
  GI50: > 100 µM (inactive)
[14]
  GI50: > 100 µM (inactive)
[16]
  GI50: > 100 µM (inactive)
[17]
  GI50: > 100 µM (inactive)
[18]
  GI50: > 100 µM (inactive)
[19]
  GI50: > 100 µM (inactive)
[20]
  GI50: > 100 µM (inactive)
[22]
  GI50: > 100 µM (inactive)
[23]
  GI50: > 100 µM (inactive)
[24]
  GI50: > 100 µM (inactive)
[25]
  GI50: > 100 µM (inactive)
[26]
  GI50: > 100 µM (inactive)
[27]
  GI50: > 100 µM (inactive)
[28]
  GI50: > 100 µM (inactive)
[29]
  GI50: > 100 µM (inactive)
[30]
  GI50: > 100 µM (inactive)
[31]
  GI50: > 100 µM (inactive)
[32]
  GI50: > 100 µM (inactive)
[33]
  GI50: > 100 µM (inactive)
[34]
  GI50: > 100 µM (inactive)
[35]
  GI50: > 100 µM (inactive)
[36]
  GI50: > 100 µM (inactive)
[37]
  GI50: > 100 µM (inactive)
[38]
  GI50: > 100 µM (inactive)
[39]
  GI50: > 100 µM (inactive)
[40]
  GI50: > 100 µM (inactive)
[41]
  GI50: > 100 µM (inactive)
[42]
  GI50: > 100 µM (inactive)
[43]
  GI50: > 100 µM (inactive)
[44]
  GI50: > 100 µM (inactive)
[45]
  GI50: > 100 µM (inactive)
[46]
  GI50: > 100 µM (inactive)
[47]
  GI50: > 100 µM (inactive)
[48]
  GI50: > 100 µM (inactive)
[49]
  GI50: > 100 µM (inactive)
[50]
  GI50: > 100 µM (inactive)
[51]
  GI50: > 100 µM (inactive)
[52]
  GI50: > 100 µM (inactive)
[53]
  GI50: > 100 µM (inactive)
[54]
  GI50: > 100 µM (inactive)

## COc1cc(OC)c(Oc2cccc(OC)c2OC)c(OC)c1
[1]
  GI50: > 100 µM (inactive)
[55]
  GI50: > 100 µM (inactive)
[2]
  GI50: > 100 µM (inactive)
[3]
  GI50: > 100 µM (inactive)
[56]
  GI50: > 100 µM (inactive)
[4]
  GI50: > 100 µM (inactive)
[5]
  GI50: > 100 µM (inactive)
[6]
  GI50: > 100 µM (inactive)
[7]
  GI50: > 100 µM (inactive)
[8]
  GI50: > 100 µM (inactive)
[9]
  GI50: > 100 µM (inactive)
[10]
  GI50: > 100 µM (inactive)
[11]
  GI50: > 100 µM (inactive)
[12]
  GI50: > 100 µM (inactive)
[13]
  GI50: > 100 µM (inactive)
[57]
  GI50: > 100 µM (inactive)
[14]
  GI50: > 100 µM (inactive)
[16]
  GI50: > 100 µM (inactive)
[17]
  GI50: > 100 µM (inactive)
[18]
  GI50: > 100 µM (inactive)
[19]
  GI50: > 100 µM (inactive)
[21]
  GI50: > 100 µM (inactive)
[22]
  GI50: > 100 µM (inactive)
[23]
  GI50: 29.5 µM (inactive)
[24]
  GI50: > 100 µM (inactive)
[25]
  GI50: > 100 µM (inactive)
[26]
  GI50: > 100 µM (inactive)
[27]
  GI50: > 100 µM (inactive)
[28]
  GI50: > 100 µM (inactive)
[29]
  GI50: > 100 µM (inactive)
[30]
  GI50: > 100 µM (inactive)
[31]
  GI50: > 100 µM (inactive)
[32]
  GI50: > 100 µM (inactive)
[33]
  GI50: > 100 µM (inactive)
[34]
  GI50: > 100 µM (inactive)
[35]
  GI50: > 100 µM (inactive)
[36]
  GI50: > 100 µM (inactive)
[37]
  GI50: > 100 µM (inactive)
[38]
  GI50: > 100 µM (inactive)
[39]
  GI50: 32.1 µM (inactive)
[41]
  GI50: > 100 µM (inactive)
[42]
  GI50: > 100 µM (inactive)
[44]
  GI50: > 100 µM (inactive)
[45]
  GI50: > 100 µM (inactive)
[46]
  GI50: > 100 µM (inactive)
[47]
  GI50: > 100 µM (inactive)
[48]
  GI50: > 100 µM (inactive)
[58]
  GI50: > 100 µM (inactive)
[49]
  GI50: > 100 µM (inactive)
[51]
  GI50: > 100 µM (inactive)
[52]
  GI50: > 100 µM (inactive)
[53]
  GI50: > 100 µM (inactive)
[54]
  GI50: > 100 µM (inactive)
